# Source: publication PMC6202310 (Molecular Cell, 2018)
# Columns and labels:
# E. coli RNAP βH526P = E. coli RNAP βH526P (Escherichia coli, UniProt P0A8V2, H526P); format: biochemical; details: at 2.5 mg/mL; mutation at βH526
# M. smegmatis RNAP = M. smegmatis RNAP (Mycolicibacterium smegmatis, UniProt P60281); experiment: In vitro transcription on T7A1 promoter template; format: biochemical; details: performed as with E. coli RNAP, started with ATP
# [1] = test system: methicillin-resistant Staphylococcus aureus (MRSA); experiment: Agar dilution MIC
# E. coli RNAP βR143A = E. coli RNAP βR143A (Escherichia coli, UniProt P0A8V2, R143A); format: biochemical; details: βR143A RNAP against wild-type RNAP
# E. coli RNAP βH526R = E. coli RNAP βH526R (Escherichia coli, UniProt P0A8V2, H526R); format: biochemical; details: at 2.5 mg/mL; mutation at βH526
# wild-type E. coli RNAP = wild-type E. coli RNAP (Escherichia coli, UniProt P0A8V2); experiment: In vitro transcription on T7A1 promoter template; format: biochemical; details: transcription started with ATP, in the absence of the CpA primer
# E. coli RNAP βH526Y = E. coli RNAP βH526Y (Escherichia coli, UniProt P0A8V2, H526Y); format: biochemical; details: at 2.5 mg/mL; mutation at βH526
smiles,measurement,setting,value
"CO[C@H]1/C=C/O[C@@]2(C)Oc3c(C)c(O)c4c(O)c(c(/C=N/N5CCN(C)CC5)c(O)c4c3C2=O)NC(=O)/C(C)=C\C=C\[C@H](C)[C@H](O)[C@@H](C)[C@@H](O)[C@@H](C)[C@H](OC(C)=O)[C@@H]1C [RIF, rifampicin]",inhibition of RNAP,E. coli RNAP βH526P,no inhibition
same,synthesis of the trinucleotide (pppApUpC),M. smegmatis RNAP,partly allowed
same,MIC,[1]; S. aureus Bel 97597,2 µg/mL
same,MIC,[1]; S. aureus Bel 97598,> 128 µg/mL
same,MIC,[1]; S. aureus Fin 54511,> 128 µg/mL
same,MIC,[1]; S. aureus Fin 54518,> 128 µg/mL
same,effect of the βR143A mutation on sensitivity,E. coli RNAP βR143A,little effect
same,inhibition of RNAP,E. coli RNAP βH526R,no inhibition
same,"formation of the triphosphorylated trinucleotide, pppApUpC",wild-type E. coli RNAP,allowed some of its production
same,"inhibition of formation of the first dinucleotide, pppApU",wild-type E. coli RNAP,3 fold
same,inhibition of RNAP,E. coli RNAP βH526Y,no inhibition
